Measurements reported in US20070232601A1, “Vla-4 Inhibitor” (priority 2004, published 2007).

biological target: T1, hα4 and β1 integrins (VLA-4) (Homo sapiens, UniProt P05556+P13612); test: In vitro evaluation: inhibition of binding of CHO cells expressing hα4 and β1 integrins to Eu3+-hVCAM-1 D1D7-IgG; conditions: ligand Eu3+-hVCAM-1 D1D7-IgG 2 nM, Ki calculated from IC50
T1 construct: expressed in transfected cells; host or cells: CHO cells
Protocol: CHO cells which were forced to be expressed by transduction of hα4 and β1 integrins are seeded (3×10^4 cells/100 μl/well) on a Costar 3599 plate, and cultured for 2 days. A medium is washed with a buffer A* two times, and Eu^3+-hVCAM-1 D1D7-IgG which was diluted with an assay buffer A** to 2 nM is added at 50 μl/well. A test substance which was diluted with 2% DMSO-assay buffer (in the presence or the absence of 6% human serum albumin) is added at 50 μl/well (A solution which was separately diluted is added to a well in which Scatchard analysis is performed), this is stirred with a plate mixer for 5 minutes, and allowed to stand at room temperature for 1 hour. Thereafter, this is washed with a buffer A four times, a potentiating reagent (manufactured by DELFIA) is added at 100 μl/well, this is shaken for 5 minutes using a plate mixer, and a fluorescence intensity is measured with a time-resolved fluorometer (DELFIA Wallac). IC50 (concentration at which binding of CHO cell and Eu^3+-hVCAM-1 D1D7-IgG is inhibited by 50%) of a test substance is obtained from an integration rate obtained from a calculation equation: [(FT−FNS)−(FI−FNS)]/[(FT−FNS)]×100, wherein FT indicates a fluorescence intensity of a well not containing a test substance, FNS indicates a fluorescence intensity of a well not containing a test substance and hVCAM-1 D1D7-IgG, and FI indicates a fluorescence intensity containing a test substance. A Kd value showing strength of binding and Bmax (maximum binding amount) were presumed in a range of 0.06 to 20 nM according to the Scachard analysis method. [formula]
A Ki value was calculated according to the above equation ([L] is ligand concentration)
[* buffer A: 25 mM HEPES (pH 7.5), 150 mM NaCl, 1 mM Ca^2+, 1 mM Mg^2+, 4 mM Mn^2+; ** assay buffer: 25 mM HEPES (pH 7.5), 150 mM NaCl, 1 mM Ca^2+, 1 mM Mg^2+, 4 mM Mn^2+, 0.1% BSA, 20 μM DTPA, with/without 6% ALBUMIN, HUMAN SERUM (C/NA-1653, SIGMA)]

T1 sequence (P13612 34-1032): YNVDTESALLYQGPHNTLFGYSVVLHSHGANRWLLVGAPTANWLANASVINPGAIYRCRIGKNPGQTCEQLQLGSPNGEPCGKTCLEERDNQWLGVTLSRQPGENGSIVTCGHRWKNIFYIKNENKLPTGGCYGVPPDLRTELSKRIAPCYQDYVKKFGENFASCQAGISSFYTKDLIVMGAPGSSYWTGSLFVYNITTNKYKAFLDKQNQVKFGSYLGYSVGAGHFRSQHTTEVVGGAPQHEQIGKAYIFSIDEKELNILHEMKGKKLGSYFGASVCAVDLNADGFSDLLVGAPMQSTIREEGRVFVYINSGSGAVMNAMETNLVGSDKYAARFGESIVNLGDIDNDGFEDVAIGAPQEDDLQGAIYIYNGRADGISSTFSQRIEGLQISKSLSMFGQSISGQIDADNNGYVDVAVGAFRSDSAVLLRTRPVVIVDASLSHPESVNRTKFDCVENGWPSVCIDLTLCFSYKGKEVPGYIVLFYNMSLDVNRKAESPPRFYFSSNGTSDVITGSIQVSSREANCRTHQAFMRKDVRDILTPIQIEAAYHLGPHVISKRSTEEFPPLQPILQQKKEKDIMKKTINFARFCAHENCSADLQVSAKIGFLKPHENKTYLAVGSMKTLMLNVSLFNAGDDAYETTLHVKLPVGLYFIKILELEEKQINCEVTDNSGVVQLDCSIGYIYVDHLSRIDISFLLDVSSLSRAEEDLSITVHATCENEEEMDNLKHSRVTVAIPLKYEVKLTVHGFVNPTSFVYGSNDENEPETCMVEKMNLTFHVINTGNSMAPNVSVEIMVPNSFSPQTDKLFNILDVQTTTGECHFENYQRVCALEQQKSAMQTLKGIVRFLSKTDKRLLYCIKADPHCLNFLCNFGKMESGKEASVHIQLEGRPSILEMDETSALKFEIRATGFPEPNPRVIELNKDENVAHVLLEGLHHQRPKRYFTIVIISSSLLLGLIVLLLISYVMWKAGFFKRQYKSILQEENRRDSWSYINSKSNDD
T1 sequence (P05556 21-798): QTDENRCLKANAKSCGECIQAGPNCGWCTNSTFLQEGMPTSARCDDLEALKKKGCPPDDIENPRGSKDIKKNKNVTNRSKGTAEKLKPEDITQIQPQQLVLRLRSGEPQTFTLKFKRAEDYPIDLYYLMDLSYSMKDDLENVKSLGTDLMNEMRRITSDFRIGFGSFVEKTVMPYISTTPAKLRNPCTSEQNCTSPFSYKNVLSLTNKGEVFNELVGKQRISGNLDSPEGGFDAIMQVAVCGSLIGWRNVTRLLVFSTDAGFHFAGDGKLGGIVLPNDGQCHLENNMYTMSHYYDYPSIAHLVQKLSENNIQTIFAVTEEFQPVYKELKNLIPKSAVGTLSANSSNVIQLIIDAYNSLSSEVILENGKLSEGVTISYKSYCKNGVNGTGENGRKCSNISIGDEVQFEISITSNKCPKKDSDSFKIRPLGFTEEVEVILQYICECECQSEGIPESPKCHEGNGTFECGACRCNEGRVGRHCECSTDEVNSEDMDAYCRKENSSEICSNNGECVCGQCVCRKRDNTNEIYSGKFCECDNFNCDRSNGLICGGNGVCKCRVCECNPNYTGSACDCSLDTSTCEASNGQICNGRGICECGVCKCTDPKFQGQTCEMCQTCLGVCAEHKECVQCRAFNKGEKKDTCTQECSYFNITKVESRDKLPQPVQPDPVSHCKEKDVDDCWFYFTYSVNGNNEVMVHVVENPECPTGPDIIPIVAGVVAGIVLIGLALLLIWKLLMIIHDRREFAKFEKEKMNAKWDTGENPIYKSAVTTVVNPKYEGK

Molecule | Ki [nM]
O=C(O)CCc1cnc([C@@H]2[C@@H](O)CCN2C(=O)Cc2cc(Cl)c(NC(=O)c3csc4ccccc34)cc2F)s1 [Example 122] | 1.6
CO[C@H]1C[C@@H](c2cc(CCC(=O)O)on2)N(C(=O)Cc2cc(Cl)c(NC(=O)c3cn(C)c4ccccc34)cc2Cl)C1 [Example 30, 3-[3-[1-[2,5-Dichloro-4-(1-methyl-3-indolylcarbonylamino)phenylacetyl]-(4S)-methoxy-(2S)-pyrrolidinyl]-5-isoxazole]propionic acid] | 5.8
CCO[C@H]1CCN(C(=O)Cc2ccc3nc(Nc4ccccc4C)oc3c2)[C@@H]1c1ncc(CCC(=O)O)o1 [Example 104, 3-[2-[1-[[2-(2-Methylphenyl)amino-6-benzoxazolyl]acetyl]-(3S)-ethoxy-(2S)-pyrrolidinyl]-5-oxazolyl]propionic acid] | 4.5
CO[C@H]1C[C@@H](c2ncc(CCC(=O)O)o2)N(C(=O)Cc2cc(Cl)c(NC(=O)c3cn(C)c4ccccc34)cc2F)C1 [Example 13, 3-[2-[1-[5-Chloro-2-fluoro-4-(1-methyl-3-indolylcarbonyl)aminophenylacetyl]-(4S)-methoxy-(2S)-pyrrolidinyl]-5-oxazolyl]propionic acid] | 17
O=C(O)CCc1cnc([C@@H]2CCCN2C(=O)Cc2cc(Cl)c(NC(=O)c3csc4ccccc34)cc2F)s1 [Example 29, 3-[2-[1-[4-[(3-Benzo[b]thienylcarbonyl)amino]-5-chloro-2-fluorophenylacetyl]-(2S)-pyrrolidinyl]-5-thiazolyl]propionic acid] | 0.26
CON(C)[C@H]1C[C@@H](c2ncc(CCC(=O)O)s2)N(C(=O)Cc2cc(Cl)c(NC(=O)c3cn(C)c4ccccc34)cc2F)C1 [Example 127, 3-[2-[1-[5-Chloro-2-fluoro-4-(1-methyl-3-indolylcarbonylamino)phenylacetyl]-(4S)—N,O-dimethylhydroxylamino-(2S)-pyrrolidinyl]-5-thiazolyl]propionic acid] | 4.5
CO[C@H]1C[C@@H](c2ncc(CCC(=O)O)s2)N(C(=O)Cc2cc(Cl)c(NC(=O)c3coc4ccccc34)cc2F)C1 [Example 6, 3-[2-[1-[4-[(1-Benzofuran-3-ylcarbonyl)amino]-5-chloro-2-fluorophenylacetyl]-(4S)-methoxy-(2S)-pyrrolidinyl]-5-thiazolyl]propionic acid] | 0.4
O=C(O)CCc1cnc([C@@H]2[C@@H](O)CCN2C(=O)Cc2cc(Cl)c(NC(=O)c3csc4ccccc34)cc2Cl)s1 [Example 123] | 3.5
CON(C)[C@H]1C[C@@H](c2ncc(CCC(=O)O)s2)N(C(=O)Cc2cc(Cl)c(NC(=O)c3csc4ccccc34)cc2Cl)C1 [Example 130, 3-[2-[1-[4-(3-Benzo[b]thiophenylcarbonylamino)-2,5-dichlorophenylacetyl]-(4S)—N,O-dimethylhydroxylamino-(2S)-pyrrolidinyl]-5-thiazolyl]propionic acid] | 3.5
CCOC[C@@H]1CC[C@@H](c2ncc(CCC(=O)O)s2)N1C(=O)Cc1ccc2nc(Nc3cc(F)ccc3OC)oc2c1F [Example 52, 3-[2-[(5S)-ethoxymethyl-1-[7-fluoro-2-(5-fluoro-2-methoxyphenylamino)-6-benzoxazolylacetyl]-(2S)-pyrrolidinyl]-5-thiazolyl]propionic acid] | 34
O=C(O)CCc1cnc([C@@H]2C[C@@H]3CCCC[C@@H]3N2C(=O)Cc2cc(Cl)c(NC(=O)c3csc4ccccc34)cc2F)s1 [Example 61, 3-[2-[1-[4-[(3-Benzo[b]thienylcarbonyl)amino]-5-chloro-2-fluorophenylacetyl]-(2S)-octahydroindolyl]-5-thiazolyl]propionic acid] | 6
O=C(O)CCc1cnc([C@@H]2C[C@H](OC3CCC3)CN2C(=O)Cc2cc(Cl)c(NC(=O)c3csc4ccccc34)cc2F)s1 [Example 41] | 2.2
COC[C@@H]1CC[C@@H](c2ncc(CCC(=O)O)s2)N1C(=O)Cc1cc(Cl)c(NC(=O)c2coc3ccccc23)cc1F [Example 56, 3-[2-[1-[4-[(1-Benzofuran-3-ylcarbonyl)amino]-5-chloro-2-fluorophenylacetyl]-(5S)-methoxymethyl-(2S)-pyrrolidinyl]-5-thiazolyl]propionic acid] | 66
3-[2-[1-[4-(3-Benzo[b]thiophenylcarbonyl)amino-5-chloro-2-fluorophenyl]acetyl]-(3S)-ethoxy-(2S)-pyrrolidinyl]-5-oxazolyl]propionic acid methyl ester [Example 99] | 5.3
O=C(O)CCc1cnc([C@@H]2C[C@H](F)CN2C(=O)Cc2cc(Cl)c(NC(=O)c3csc4ccccc34)cc2Cl)s1 [Example 20, 3-[2-[1-[[4-[(3-Benzo[b]thienylcarbonyl)amino]-2,5-dichlorophenyl]acetyl]-(4S)-fluoro-(2S)-pyrrolidinyl]-5-thiazolyl]propionic acid] | 0.69
O=C(O)CCc1cnc([C@@H]2C[C@H](F)CN2C(=O)Cc2cc(Cl)c(NC(=O)c3coc4ccccc34)cc2F)s1 [Example 22, 3-[2-[1-[[4-[(1-Benzofuran-3-ylcarbonyl)amino]-5-chloro-2-fluorophenyl]acetyl]-(4S)-fluoro-(2S)-pyrrolidinyl]-5-thiazolyl]propionic acid] | 0.23
CO[C@H]1C[C@@H](c2ncc(CCC(=O)O)s2)N(C(=O)Cc2cc(Cl)c(NC(=O)c3nn(C)c4ccccc34)cc2F)C1 [Example 7, 3-[2-[1-[5-Chloro-2-fluoro-4-(1-methyl-3-indazolylcarbonyl)aminophenylacetyl]-(4S)-methoxy-(2S)-pyrrolidinyl]-5-thiazolyl]propionic acid] | 0.97
CCO[C@H]1CCN(C(=O)Cc2ccc3nc(Nc4cc(F)ccc4OC)oc3c2F)[C@@H]1c1ncc(CCC(=O)O)o1 [Example 105, 3-[2-[1-[[7-Fluoro-2-(5-fluoro-2-methoxyphenyl)amino-6-benzoxazolyl]acetyl]-(3S)-ethoxy-(2S)-pyrrolidinyl]-5-oxazolyl]propionic acid] | 11
Cn1cc(C(=O)Nc2cc(Cl)c(CC(=O)N3C[C@@H](Oc4cccnc4)C[C@H]3c3ncc(CCC(=O)O)s3)cc2Cl)c2ccccc21 [Example 44, 3-[2-[1-[2,5-Dichloro-4-(1-methyl-3-indolylcarbonylamino)phenylacetyl]-(4S)-(3-pyridyloxy)-(2S)-pyrrolidinyl]-5-thiazolyl]propionic acid] | 3.9
O=C(O)CCc1cnc([C@@H]2C[C@H](OC3CCC3)CN2C(=O)Cc2cc(Cl)c(NC(=O)c3coc4ccccc34)cc2F)s1 [Example 43, 3-[2-[1-[4-[(1-Benzofuran-3-ylcarbonyl)amino]-5-chloro-2-fluorophenylacetyl]-(4S)-cyclobutoxy-(2S)-pyrrolidinyl]-5-thiazolyl]propionic acid] | 2.9
Cc1ccc(F)cc1Nc1nc2ccc(CC(=O)N3[C@H](c4ncc(CCC(=O)O)s4)C[C@@H]4CCCC[C@@H]43)c(F)c2o1 [Example 62, 3-[2-[1-[7-Fluoro-2-(5-fluoro-2-methylphenyl)amino-6-benzoxazolylacetyl]-(2S)-octahydroindolyl]-5-thiazolyl]propionic acid] | 2.3
CO[C@H]1C[C@@H](c2ncc(CCC(=O)O)s2)N(C(=O)Cc2ccc3nc(-c4cn(C)c5ccccc45)oc3c2F)C1 [Example 11, 3-[2-[1-[7-Fluoro-2-(1-methylindol-3-yl)-1,3-benzoxazol-6-ylacetyl]-(4S)-methoxy-(2S)-pyrrolidinyl]-5-thiazolyl]propionic acid] | 0.5
O=C(O)CCc1cnc([C@@H]2[C@@H](O)CCN2C(=O)Cc2cc(Cl)c(Nc3nc4ccccc4o3)cc2Cl)s1 [Example 118, 3-[2-[1-[4-(2-Benzoxazolyl)amino-2,5-dichlorophenyl]acetyl-(3S)-hydroxy-(2S)-pyrrolidinyl]-5-thiazolyl]propionic acid] | 36
CCO[C@H]1CCN(C(=O)Cc2cc(Cl)c(Nc3nc4ccccc4s3)cc2Cl)[C@@H]1c1ncc(CCC(=O)O)s1 [Example 115, 3-[2-[1-[4-(2-Benzothiazolyl)amino-2,5-dichlorophenyl]acetyl-(3S)-ethoxy-(2S)-pyrrolidinyl]-5-thiazolyl]propionic acid] | 8.4
O=C(O)CCc1cnc([C@@H]2C[C@H](F)CN2C(=O)Cc2cc(Cl)c(NC(=O)c3csc4ccccc34)cc2F)s1 [Example 21, 3-[2-[1-[[4-[(3-Benzo[b]thienylcarbonyl)amino]-5-chloro-2-fluorophenyl]acetyl]-(4S)-fluoro-(2S)-pyrrolidinyl]-5-thiazolyl]propionic acid] | 0.61
COc1cc(CC(=O)N[C@@H](CC(C)C)c2cc(CCC(=O)O)on2)ccc1NC(=O)Nc1ccccc1C [CP664511] | 1.5
